pIC50: −log10 of the molar value. Calls of active or inactive are those of the source. The rule behind the calls is not given here.
Legend:
Fibroblast [1] = test: Induction of CRABP 2 mRNA expression in human normal fibroblast at 10 uM by […] relative to control; type: functional
HaCaT [2] = test: Decrease in collagenase expression in Coll-CAT gene transfected human HaCaT cells co-transfected with c-Jun relative to control; type: functional
HaCaT [3] = test: Decrease in collagenase expression in Coll-CAT gene transfected human HaCaT cells co-transfected with c-Jun and retinoic acid receptor relative to control; type: functional
Fibroblast [4] = test: Induction of CRABP 2 mRNA expression in human normal fibroblast at 1 uM by […] relative to control; type: functional
[5] = Stability in human fibroblasts assessed as retention time after 2 days; type: ADME, cell-based; details: fibroblast, 48 h
[6] = Photostability after UV irradiation; type: physicochemical
[7] = Cytotoxicity against human normal fibroblast after 1 day by MTT assay; type: cell-based; details: 24 h
[8] = Thermal stability at 4 degC after 4 weeks; type: physicochemical; details: 672 h
[9] = molecular target: T1, Retinoic acid receptor alpha (Homo sapiens) (UniProt P10276); test: Increase in transcriptional activity of RARalpha receptor epressed in human HaCaT cells co-transfected with DR5-tk-CAT reporter plasmid assessed as beta-galactosidase activity by CAT-ELISA; type: cell-based
T1 sequence (whole entry): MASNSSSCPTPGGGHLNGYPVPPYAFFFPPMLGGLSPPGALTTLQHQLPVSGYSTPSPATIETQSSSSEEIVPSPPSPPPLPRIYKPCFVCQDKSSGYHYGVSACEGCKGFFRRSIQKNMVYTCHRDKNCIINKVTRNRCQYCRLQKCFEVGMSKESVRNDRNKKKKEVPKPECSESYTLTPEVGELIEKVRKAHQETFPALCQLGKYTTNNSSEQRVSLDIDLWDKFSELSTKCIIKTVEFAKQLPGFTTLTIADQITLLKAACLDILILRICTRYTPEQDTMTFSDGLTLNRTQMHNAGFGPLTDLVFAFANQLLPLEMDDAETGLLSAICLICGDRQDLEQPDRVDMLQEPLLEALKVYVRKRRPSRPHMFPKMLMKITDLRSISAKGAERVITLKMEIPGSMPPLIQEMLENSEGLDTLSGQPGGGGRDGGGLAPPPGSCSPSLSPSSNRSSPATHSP

Fibroblast [10] = test: Induction of collagen biosynthesis in human normal fibroblast; type: functional, cell-based
[11] = molecular target: Transcription factor Jun (Homo sapiens) (UniProt P05412); test: Inhibition of AP1 expressed in human HaCaT cells transfected with Coll-CAT reporter gene assessed as collagenase expression by CAT-ELISA; type: cell-based
Chain of Transcription factor Jun (Homo sapiens) (P05412 whole entry): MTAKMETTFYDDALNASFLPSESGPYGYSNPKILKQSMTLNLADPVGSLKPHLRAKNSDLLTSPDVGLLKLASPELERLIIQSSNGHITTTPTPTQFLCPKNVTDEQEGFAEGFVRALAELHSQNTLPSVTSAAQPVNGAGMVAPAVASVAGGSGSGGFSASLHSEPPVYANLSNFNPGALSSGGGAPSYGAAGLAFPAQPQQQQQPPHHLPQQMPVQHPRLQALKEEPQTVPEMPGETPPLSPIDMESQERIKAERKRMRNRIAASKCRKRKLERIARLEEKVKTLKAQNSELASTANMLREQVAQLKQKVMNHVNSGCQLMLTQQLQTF

[12] = Thermal stability at 40 degC after 4 weeks; type: physicochemical; details: 672 h

Activity [5] [min]	Stability [6]	Stability [8]	Activity [9]	Activity [11]	Activity [6]	Activity [12]	Structure (SMILES)	Activity (Fibroblast [1])	inhibition (INH) (HaCaT [2]) [%]	inhibition (INH) (HaCaT [3]) [%]	Activity (Fibroblast [4])	pIC50 [7]	Activity (Fibroblast [10])
–	–	–	–	–	–	–	CC1=C(/C=C/C(C)=C/C=C/C(C)=C/C(=O)O)C(C)(C)CCC1 [TRETINOIN]	2.05	5.4	64	1.84	–	–
18.94	Stable	Stable	Active	Active	–	–	CC1=C(/C=C/C(C)=C/C=C/C(C)=C/COC(=O)/C=C(C)/C=C/C=C(C)/C=C/C2=C(C)CCCC2(C)C)C(C)(C)CCC1 [RETINYLRETINOATE]	1.75	6.7	52	1.56	4.40	Active
–	–	Stable	Active	–	Not Active	Not Active	CC1=C(/C=C/C(C)=C/C=C/C(C)=C/CO)C(C)(C)CCC1 [RETINOL]	1.44	7.3	33	1.4	4.60	–
–	–	–	–	–	–	–	CCCCCCCCCCCCCCCC(=O)OC/C=C(C)/C=C/C=C(C)/C=C/C1=C(C)CCCC1(C)C [VITAMIN A PALMITATE]	1.4	–	–	1.2	–	–

Source: ChEMBL document CHEMBL1150766, “Synthesis and in vitro biological activity of retinyl retinoate, a novel hybrid retinoid derivative” (Bioorg Med Chem, 2008)
